According to US20230050202A1, “ENGINEERED FIBROBLASTS AS CELL THERAPY TO TREAT CANCER VIA TUMOR STROMA STABILIZATION” (The Johns Hopkins University, priority 2020, published 2023):

Experiments:
[1] = tested on: αSMA expression in human lung fibroblasts (MRCS); assay: TGFβ1-mediated CAF induction (αSMA expression) in human lung fibroblasts; format: cell-based; details: control fibroblasts, TGFβ1 10 ng/mL, vs non-treated group, p<0.001
From the text: Prototype STAR fibroblasts were generated by introducing the dominant negative form of RhoA (RhoA^T19N) into to human lung fibroblasts (MRCS) to reduce RhoA signaling, a key mediator for CAF phenotypes.

[2] = Rheological measurement (LAOS) of crosslinked collagen gel; format: physicochemical
Method: ECM crosslinking. ECM-encapsulated 67NR spheroids were prepared as previously described. After 1-hour incubation, genipin (Sigma-Aldrich, G4796) was mixed with DMEM to reach final concertation of 0.5 mM and 1 mM. The solutions were then added to the samples and incubated for 24 hours. The DMSO-added DMEM were used as a control for the experiment. The samples were then washed with PBS for further usage. Elastic modulus measurement. The Large […] Oscillatory Shear (LAOS) was used to test the shear modulus of the crosslinked and uncrosslinked collagen gel. The collagen gel was prepared in disks and subjected to sinusoidal rotational deformation. The amplitude of the applied strain (y) to the material was increased at a fixed rotational frequency (w) of 1 rad/s. The analysis utilized a viscoelastic stress response model wherein the shear stress is computed as a function of strain ranging from 0.01%-15%. The Fourier Transform method was utilized to quantify the nonlinear stress response of ECM samples under increasingly large angular shear strain. LAOS was performed using an Anton Paar Modular Compact Rheometer (MCR 302) with a parallel plate (diameter 8 mm) at 37° C. The measurement values of the shear modulus were then used obtain the elastic modulus by the formula: E=2G(1+v) where E is elastic modulus, G is shear modulus, and v is the Poisson ratio. The Poisson ratio was assumed to be 0.5.

[3] = tested on: FSP1 expression in NIH-3T3 fibroblasts; assay: FSP1 immunofluorescence in fibroblasts, 67NR spheroid coculture; format: cell-based, mouse
Method: (§1) Spheroid encapsulation with fibroblasts: for coculture, 40 μL collagen was used to re-suspend 2×10^5 NIH-3T3 cells after centrifugation. The fibroblasts-containing liquid collagen was then added to the glass bottom well where a spheroid was placed in its center. The mixture was allowed to gel at room temperature for 2 hours. 2 mL DMEM was then added into the well. The embedded spheroid was incubated for at least 1 day or longer, as indicated in the text, before being used.
(§2) ECM crosslinking. ECM-encapsulated 67NR spheroids were prepared as previously described. After 1-hour incubation, genipin (Sigma-Aldrich, G4796) was mixed with DMEM to reach final concertation of 0.5 mM and 1 mM. The solutions were then added to the samples and incubated for 24 hours. The DMSO-added DMEM were used as a control for the experiment. The samples were then washed with PBS for further usage.
(§3) Immunofluorescence. Samples were fixed in 4% paraformaldehyde for 30 minutes, permeabilized with 0.1% Triton X100 (Sigma-Aldrich, X100) in PBS for 30 minutes. PBS containing 2% bovine serum albumin (Sigma-Aldrich, A7906) and 0.1% Tween-20 (Promega) was then added to sample for 30 minutes for blocking. All antibody was diluted in PBS with 1% bovine serum albumin. The fixed cells were incubated with the primary antibody for overnight at 4° C., followed by washing using PBS for 3 times, and then incubated with the secondary antibody for 2 hours. After washing, the samples were immersed in PBS and stored in 4° C. for further usage. […]
(§4) Fibril coherence analysis was performed using Quantitative orientation measurement in orientationJ21. The immunostaining was quantified using Fiji/ImageJ software. […]
(§5) where II and AI denotes the fluorescence intensity, and the area of the cell, respectively. I2 and A2 denotes the fluorescence intensity, and the area of the larger region encompassing the cell and the surrounding background, respectively. […] The corrected fluorescence intensity was then recorded for each cell.

67NR spheroids = assay: Cytotoxicity in genipin-treated 67NR-embedded ECM; format: cell-based, mouse; details: 0.5 mM genipin, 24 hours
Method: as §2
The corollary to the observation that ECM fibril alignment promotes CAF induction in the coculture is that suppressing such alignment will attenuate it. To confirm this, genipin, a biocompatible crosslinking reagent, was used to suppress the fibril reorganization. The optimal genipin concentration was identified to be 0.5 mM. […] Yet the fibril alignment was suppressed by 28% (FIGS. 5A-5B). […] Though ECM crosslinking might lead to CAF induction because of ECM stiffening, it was not the case in these experiments. […] Having had established the optimal genipin concentration to suppress fibril alignment, it was used to evaluate whether CAF induction in cocultured fibroblasts would be attenuated. […] To exclude the possibility that genipin directly downregulates CAF markers in fibroblasts, their expression was evaluated in genipin-treated samples containing fibroblasts only.

67NR-embedded ECM [4] = assay: Line FRAP diffusion enhancement time in spheroid-embedded ECM; format: cell-based, mouse; details: 0.5 mM genipin-treated 67NR-embedded ECM, 2,000 kDa FITC-dextran
Method: ECM crosslinking. ECM-encapsulated 67NR spheroids were prepared as previously described. After 1-hour incubation, genipin (Sigma-Aldrich, G4796) was mixed with DMEM to reach final concertation of 0.5 mM and 1 mM. The solutions were then added to the samples and incubated for 24 hours. The DMSO-added DMEM were used as a control for the experiment. The samples were then washed with PBS for further usage. Fluorescence recovery after photobleaching. 10 mg/mL of 2,000 kDa fluorescein isothiocyanate (FITC)-Dextran (SigmaAldrich, FD2000S) was added to the collagen gel and incubated for 30 minutes at 37° C. […] The characteristic fluorescence recovery times τD, when 64% of the fluorescence intensity is recovered, was calculated based on the fitted curve. […] Line fluorescence recovery was performed after photobleaching (FRAP) to measure the diffusivity of the spheroid-embedded ECM. […] To assess whether there is enhancement in diffusion rates in the radial direction from the spheroid, the metric “diffusion enhancement time (τDE)” was introduced, defined as the difference in the characteristic fluorescence recovery times τD, when 64% of the fluorescence intensity is recovered, between the two stripes: […]) where rD(radial) represents the rD measured in the radial direction, and rD(orthogonal) in the corresponding orthogonal direction. […]

[5] = tested on: αSMA expression in NIH-3T3 fibroblasts; assay: αSMA immunofluorescence in fibroblasts, 67NR spheroid coculture; format: cell-based, mouse
Method: as §1, §2, §3, §4, §5

67NR-embedded ECM [6] = assay: ECM fibril alignment (coherence analysis) in 67NR spheroid-embedded ECM; format: cell-based, mouse; details: 0.5 mM genipin, 24 hours, vs control
Method: Spheroid encapsulation without fibroblast: after the spheroid adhered to the glass bottom well via collagen, the liquid collagen kept at the 4° C. was poured to the well to embed the spheroid. 40 μL liquid collagen was slowly pipetted into the well and allowed to gel for 2 hours at room temperature. 2 mL DMEM was then added into the well. The embedded spheroid was incubated for at least 1 day or longer before being used.
as §2, §4
To determine whether 67NR spheroid alone is sufficient to align the fibrils, time-lapse imaging was performed by embedding EpH4-Ev and 67NR spheroids in ECM without fibroblasts. […] To quantify the degree of fibril alignment, coherence analysis 21 was performed. […] Fibril orientations within and outside the 300-μm perimeter from the spheroid were evaluated separately.

[7] = fibroblast-only samples after genipin treatment
[8] = genipin-treated cocultures, fibroblasts outside 300-μm perimeter, treatment vs control
[9] = genipin-treated cocultures, fibroblasts within the 300-μm perimeter from the spheroid

| Compound | αSMA expression increase [1] | ECM stiffening ([2]; 0.5 mM genipin, 24 hours) | shear moduli vs uncrosslinked control ([2]; 0.5 mM genipin-treated ECM) | elastic modulus of the ECM (mean±s.d.) ([2]; ECM treated with 0.5 mM genipin) | ECM became stiffer ([2]; ECM treated with 1 mM genipin vs un-crosslinked ECM) | FSP1 expression [3, 7] | FSP1 expression decreased [3, 8] | FSP1 expression reduced [3, 9] | cytotoxicity (67NR spheroids) | rDE value (diffusion enhancement time) (67NR-embedded ECM [4]) | αSMA expression [5, 7] | αSMA expression decreased [5, 8] | αSMA expression reduced [5, 9] | fibril alignment suppressed (67NR-embedded ECM [6]) |
| --- | --- | --- | --- | --- | --- | --- | --- | --- | --- | --- | --- | --- | --- | --- |
| TGFβ1: cytokine used at 10 ng/mL to induce CAF phenotype in fibroblasts | 50% | – | – | – | – | – | – | – | – | – | – | – | – | – |
| COC(=O)C1=CO[C@@H](O)[C@@H]2C(CO)=CC[C@H]12 [genipin] | – | negligible ECM stiffening | comparable | 755±163 Pa | 29% | remained unchanged | 36% | 23% | no observable cytotoxicity | decreased to a negligible level | remained unchanged | 39% | 33% | 28% |
